Experiments:
Human secretory PLA2 = biological target: T1, Human secretory PLA2 (Homo sapiens, UniProt P14555); experiment: Secretory PLA2 inhibitory activity (diheptanoyl thio PC substrate, absorbance at 405 nm); assay type: biochemical; conditions: diheptanoyl thio PC 1 mM, Triton X100 0.3 mM, pH 7.3, CaCl2 10 mM, 30 minutes, read-out: s-PLA2 Inhibition IC50
T1 sequence (P14555 21-144): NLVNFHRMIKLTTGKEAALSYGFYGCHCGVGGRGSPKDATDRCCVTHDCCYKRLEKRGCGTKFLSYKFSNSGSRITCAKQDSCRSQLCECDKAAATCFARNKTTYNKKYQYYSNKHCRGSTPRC
Summary of the method: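 Diheptanoyl thio-PC (1 mM) with Triton X100 (0.3 mM) and DTNB (125 μM) in Tris 25 mM pH 7.3, CaCl2 10 mM, KCl 100 mM, BSA 1.0 mg/ml. Absorbance change at 405 nm read at 30 min; percent inhibition corrected for no-enzyme blanks, IC50 from log-concentration plot.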

[1] = biological target: T2, intracellular PLA2 (cytosolic PLA2, cPLA2) (Homo sapiens, UniProt P47712); experiment: Intracellular PLA2 (cPLA2) inhibitory activity (14C-arachidonyl phosphatidylcholine substrate); assay type: biochemical; conditions: 2 μM radiolabelled phosphatidylcholine, 1 μM dioleoylglycerol, 1 mM CaCl2, pH 7.4; read-out: c-PLA2 Inhibition IC50
T2 sequence (P47712 1-749): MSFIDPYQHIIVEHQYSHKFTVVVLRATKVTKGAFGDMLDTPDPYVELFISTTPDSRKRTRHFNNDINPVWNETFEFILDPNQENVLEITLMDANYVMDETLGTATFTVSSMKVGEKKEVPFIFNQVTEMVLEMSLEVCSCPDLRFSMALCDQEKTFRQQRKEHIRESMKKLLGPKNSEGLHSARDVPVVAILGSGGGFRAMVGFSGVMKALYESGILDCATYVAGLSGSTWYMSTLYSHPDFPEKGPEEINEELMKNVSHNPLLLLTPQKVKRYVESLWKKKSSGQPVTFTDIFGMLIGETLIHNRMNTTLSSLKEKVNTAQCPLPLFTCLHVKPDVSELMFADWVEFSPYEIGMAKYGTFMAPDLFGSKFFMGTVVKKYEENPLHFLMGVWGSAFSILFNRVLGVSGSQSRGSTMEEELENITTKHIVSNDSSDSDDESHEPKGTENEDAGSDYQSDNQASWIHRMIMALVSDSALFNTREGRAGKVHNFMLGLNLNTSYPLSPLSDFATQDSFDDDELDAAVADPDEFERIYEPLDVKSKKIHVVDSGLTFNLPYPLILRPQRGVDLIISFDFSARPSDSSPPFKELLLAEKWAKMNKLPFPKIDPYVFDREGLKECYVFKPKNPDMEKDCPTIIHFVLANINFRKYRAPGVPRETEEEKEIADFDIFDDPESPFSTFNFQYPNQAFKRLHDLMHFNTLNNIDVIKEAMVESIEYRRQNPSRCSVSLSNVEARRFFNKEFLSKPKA
Summary of the method: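 Sonicated vesicles carrying 2 μM 1-palmitoyl-2-[14C]arachidonyl-phosphatidylcholine with 1 μM dioleoylglycerol served as substrate. Buffer: 50 mM Hepes pH 7.4, 150 mM NaCl, 1 mM CaCl2, 2 mM DTT, 0.1 mg/ml BSA. IC50 values were derived.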

adjuvant arthritis = experiment: Adjuvant arthritis in rats (Mycobacterium butyricum), foot edema volume; assay type: in vivo, Crj/LEW male rat; conditions: rat, 10 mg/kg P.O. daily, 17-18 days after adjuvant; *P < 0.05 (Examples 1, 69), **P < 0.01 (Examples 2, 23, 25) to vehicle control; Example 29 unmarked
Experimental: Adjuvant arthritis was induced by subcutaneously administering a suspension of 0.5 mg of Mycobacterium butyricum (Difco) in 0.05 ml of liquid paraffin to the pad of left foot of Crj/LEW male rat of 7-8 weeks age weighing 150-170 g. After administering the adjuvant, the volume of edema of both feet was daily measured by a plethysmometer. The adjuvant had been administered, and since the following day, a suspension of the test compound in 0.6% arabic gum was orally administered every day, and 17-18 days after administering the adjuvant, the volume of edema of the foot and that of foot to which no adjuvant had been administered were compared with each other. Volume of the edema in control group was defined as 100%, which value was obtained by subtracting the volume of foot of normal rat (1.2 ml) from the volume measured, and inhibitory percent obtained by using the inhibitor was defined as inhibitory rate. Using the inhibitory rate, effectiveness was determined by Student's-t assay.

SMILES | IC50 (Human secretory PLA2) [µM] | IC50 [1] [µM] | Inhibition % (To Nontreated Foot), edema volume (adjuvant arthritis) [%]
COc1c(C)c(OC(=O)c2c(C)c(C)c(OCCCOc3ccc(C(F)(F)F)cc3)c(C)c2OC)c(C)c(C)c1C(=O)O [Example 1, 4-[4-[3-(4-Trifluoromethylphenoxy)propyloxy]-2-methoxy-3,5,6-trimethylphenylcarboxy]-2-methoxy-3,5,6-trimethylbenzoic acid] | 21 | 20 | 43.4
COc1c(C)c(OC(=O)c2c(C)c(C)c(OCCCOc3ccc(F)cc3)c(C)c2OC)c(C)c(C)c1C(=O)O [Example 2, 4-[4-[3-(4-Fluorophenoxy)propyloxy]-2-methoxy-3,5,6-trimethylphenylcarboxy]-2-methoxy-3,5,6-trimethylbenzoic acid] | 18 | 9 | 52.3
COc1c(C)c(OC(=O)c2c(C)c(C)c(OCCCOc3ccc(Cl)cc3)c(C)c2OC)c(C)c(C)c1C(=O)O [Example 23, 4-{4-[3-(4-Chlorophenoxy)propoxy]-2-methoxy-3,5,6-trimethylbenzoyloxy}-2-methoxy-3,5,6-trimethylbenzoic Acid] | 9.4 | 4 | 66.0
COc1c(C)c(OC(=O)c2c(C)c(C)c(OCCCOc3ccc(Br)cc3)c(C)c2OC)c(C)c(C)c1C(=O)O [Example 25, 4-{4-[3-(4-Bromophenoxy)propoxy]-2-methoxy-3,5,6-trimethylbenzoyloxy}-2-methoxy-3,5,6-trimethylbenzoic Acid] | 4.6 | 13 | 66.0
COc1c(C)c(OC(=O)c2c(C)c(C)c(OCCCOc3ccc(C)cc3)c(C)c2OC)c(C)c(C)c1C(=O)O [Example 29, 4-{4-[3-(4-Methylphenoxy)propoxy]-2-methoxy-3,5,6-trimethylbenzoyloxy}-2-methoxy-3,5,6-trimethylbenzoic Acid] | 12 | 8.5 | 33.1
COc1c(C)c(OC(=O)c2c(C)c(C)c(OCCCN3CCN(c4ccc(F)cc4)CC3)c(C)c2OC)c(C)c(C)c1C(=O)O [Example 69, 4-{4-[3-(4-(4-Fluorophenyl)piperazin-1-yl)propoxy]-2-methoxy-3,5,6-trimethylbenzoyloxy}-2-methoxy-3,5,6-trimethylbenzoic Acid] | 12 | 36 | 24.6
